{
  "source": "patent US20120142546A1",
  "about": "“HYPOMETHYLATED GENES IN CANCER” (THE JOHNS HOPKINS UNIVERSITY, priority 2007, published 2012)",
  "origin": "cited, not measured here",
  "tested_on": "cancers involving the lung, esophagus, or pleura",
  "data": [
    {"smiles": "Nc1ncn([C@H]2C[C@H](O)[C@@H](CO)O2)c(=O)n1", "note": "[5-aza-2′-deoxycytidine]", "values": [
      {"measurement": "NY-ESO-1 and MAGEA3 expression in treated patients", "result": "upregulated in a proportion of patients"}
    ]}
  ]
}
